Measurements as given in DBAASP.
Values after ≈ are worked out from the molar mass of the structure shown.

How the values were obtained:
Test in all cases: ≥ marks a high value that may be exact or a test limit, other limits are often not marked, values filed in µg/mL are converted to µM
[1] = test system: Candida albicans
[2] = test system: Pseudomonas aeruginosa ATCC 27853
[3] = test system: Staphylococcus aureus ATCC 49476
[4] = test system: Staphylococcus aureus MR
[5] = test system: Escherichia coli BL21
[6] = test system: Pseudomonas aeruginosa PAO1
[7] = test system: Streptococcus pyogenes M1T1 5448
[8] = test system: Bacillus subtilis 168

Structure (SMILES)	MIC [1] [µM]	MIC [2] [µM]	MIC [3] [µM]	MIC [4] [µM]	MIC [5] [µM]	MIC [6] [µM]	MIC [7] [µM]	MIC [8] [µM]
CC[C@H](C)[C@H](NC(=O)[C@H](CC(C)C)NC(=O)[C@H](CCCN=C(N)N)NC(=O)[C@H](Cc1cnc[nH]1)NC(=O)[C@H](CCCN=C(N)N)NC(=O)[C@H](C)NC(=O)[C@H](CCCCN)NC(=O)CNC(=O)[C@H](C)NC(=O)[C@H](CO)NC(=O)[C@H](Cc1ccccc1)NC(=O)[C@H](CC(C)C)NC(=O)CNC(=O)CNC(=O)[C@@H](NC(=O)[C@@H](NC(=O)[C@H](Cc1cnc[nH]1)NC(=O)[C@H](Cc1cnc[nH]1)NC(=O)[C@@H](NC(=O)[C@@H](N)Cc1ccccc1)[C@@H](C)CC)[C@@H](C)CC)[C@@H](C)CC)C(=O)N[C@@H](CCCN=C(N)N)C(=O)N[C@@H](CCCN=C(N)N)C(=O)N[C@@H](CCCN=C(N)N)C(=O)N[C@@H](CCCN=C(N)N)C(=O)N[C@@H](CCCN=C(N)N)C(=O)O [FIHHIIGGLFSAGKARHRLIRRRRR]	42.3 (≈ 128 µg/mL)	> 169	≥ 169	≥ 169	–	–	–	–
CC[C@H](C)[C@H](NC(=O)[C@H](CCCN=C(N)N)NC(=O)[C@H](CCC(N)=O)NC(=O)[C@@H](NC(=O)CNC(=O)[C@@H](N)Cc1c[nH]c2ccccc12)[C@@H](C)O)C(=O)N[C@@H](CCCCN)C(=O)N[C@@H](C)C(=O)N[C@@H](Cc1ccc(O)cc1)C(=O)N[C@@H](CC(C)C)C(=O)N[C@@H](CCCN=C(N)N)C(=O)N[C@@H](CCCN=C(N)N)C(=O)N[C@@H](CCC(=O)O)C(=O)N[C@H](C(=O)N[C@@H](CCCN=C(N)N)C(=O)N[C@@H](CCCCN)C(=O)N[C@@H](CCCN=C(N)N)C(=O)NCC(=O)N[C@@H](CCCN=C(N)N)C(=O)N[C@@H](CCCCN)C(=O)N[C@@H](C)C(=O)N[C@H](C(=O)N[C@H](C(=O)N[C@@H](C)C(=O)N[C@@H](Cc1c[nH]c2ccccc12)C(=O)O)[C@@H](C)CC)C(C)C)[C@@H](C)CC [WGTQRIKAYLRREIRKRGRKAVIAW]	–	–	–	–	2 (≈ 6.23 µg/mL)	8 (≈ 24.9 µg/mL)	0.5 (≈ 1.56 µg/mL)	–
CC[C@H](C)[C@H](NC(=O)[C@H](CCCN=C(N)N)NC(=O)[C@H](C)NC(=O)[C@H](CCCCN)NC(=O)[C@H](CCCN=C(N)N)NC(=O)CNC(=O)[C@@H](NC(=O)[C@H](CCCCN)NC(=O)[C@H](CCCN=C(N)N)NC(=O)[C@@H](NC(=O)[C@H](CCC(=O)O)NC(=O)[C@H](CCCN=C(N)N)NC(=O)[C@H](CCCN=C(N)N)NC(=O)[C@H](CC(C)C)NC(=O)[C@H](Cc1ccc(O)cc1)NC(=O)[C@H](C)NC(=O)[C@H](CCCCN)NC(=O)[C@@H](NC(=O)[C@H](Cc1c[nH]c2ccccc12)NC(=O)[C@H](CCC(N)=O)NC(=O)[C@H](CCCN=C(N)N)NC(=O)CNC(=O)[C@H](C)N)[C@@H](C)CC)[C@@H](C)CC)C(C)C)C(=O)N[C@@H](C)C(=O)N[C@@H](Cc1c[nH]c2ccccc12)C(=O)O [AGRQWIKAYLRREIRKVGRKARIAW]	–	–	–	–	1 (≈ 3.08 µg/mL)	16 (≈ 49.3 µg/mL)	2 (≈ 6.17 µg/mL)	–
CC[C@H](C)[C@H](NC(=O)[C@H](CCCCN)NC(=O)[C@H](CC(C)C)NC(=O)[C@H](Cc1ccccc1)NC(=O)[C@H](CCCCN)NC(=O)[C@H](CCCCN)NC(=O)[C@H](Cc1ccccc1)NC(=O)[C@H](C)NC(=O)[C@H](CCCCN)NC(=O)[C@H](CCCCN)NC(=O)[C@H](Cc1ccccc1)NC(=O)[C@H](CC(C)C)NC(=O)[C@H](CCCCN)NC(=O)[C@H](Cc1c[nH]c2ccccc12)NC(=O)[C@H](CCCCN)NC(=O)CN)C(=O)N[C@@H](CC(C)C)C(=O)N[C@@H](C)C(=O)N[C@@H](CS)C(=O)O [GKWKLFKKAFKKFLKILAC]	–	–	–	–	–	–	–	3.2 (≈ 7.35 µg/mL)
CC[C@H](C)[C@H](NC(=O)[C@H](Cc1cnc[nH]1)NC(=O)[C@H](CCCCN)NC(=O)CNC(=O)[C@@H](NC(=O)[C@H](CO)NC(=O)[C@H](Cc1ccccc1)NC(=O)[C@H](CC(C)C)NC(=O)CNC(=O)CNC(=O)[C@@H](NC(=O)[C@@H](NC(=O)[C@H](Cc1cnc[nH]1)NC(=O)[C@H](Cc1cnc[nH]1)NC(=O)[C@@H](NC(=O)[C@@H](N)Cc1ccccc1)[C@@H](C)CC)[C@@H](C)CC)[C@@H](C)CC)C(C)C)C(=O)N[C@@H](Cc1cnc[nH]1)C(=O)N[C@@H](CCCN=C(N)N)C(=O)N[C@@H](CC(C)C)C(=O)N[C@H](C(=O)N[C@@H](CCCN=C(N)N)C(=O)N[C@@H](CCCN=C(N)N)C(=O)N[C@@H](CCCN=C(N)N)C(=O)N[C@@H](CCCN=C(N)N)C(=O)N[C@@H](CCCN=C(N)N)C(=O)O)[C@@H](C)CC [FIHHIIGGLFSVGKHIHRLIRRRRR]	41.6 (≈ 128 µg/mL)	41.6 (≈ 128 µg/mL)	5.2 (≈ 16 µg/mL)	10.4 (≈ 32 µg/mL)	–	–	–	–
CC[C@H](C)[C@H](NC(=O)[C@H](CC(C)C)NC(=O)[C@H](CCCN=C(N)N)NC(=O)[C@H](Cc1cnc[nH]1)NC(=O)[C@H](C)NC(=O)[C@H](C)NC(=O)[C@H](CCCCN)NC(=O)CNC(=O)[C@H](C)NC(=O)[C@H](CO)NC(=O)[C@H](Cc1ccccc1)NC(=O)[C@H](CC(C)C)NC(=O)CNC(=O)CNC(=O)[C@@H](NC(=O)[C@@H](NC(=O)[C@H](Cc1cnc[nH]1)NC(=O)[C@H](Cc1cnc[nH]1)NC(=O)[C@@H](NC(=O)[C@@H](N)Cc1ccccc1)[C@@H](C)CC)[C@@H](C)CC)[C@@H](C)CC)C(=O)N[C@@H](CCCN=C(N)N)C(=O)N[C@@H](CCCN=C(N)N)C(=O)N[C@@H](CCCN=C(N)N)C(=O)N[C@@H](CCCN=C(N)N)C(=O)N[C@@H](CCCN=C(N)N)C(=O)O [FIHHIIGGLFSAGKAAHRLIRRRRR]	43.5 (≈ 128 µg/mL)	87.1 (≈ 256 µg/mL)	21.8 (≈ 64 µg/mL)	21.8 (≈ 64 µg/mL)	–	–	–	–
